In series [1] the target is Transcriptional coactivator YAP1 (Homo sapiens) (UniProt P46937). The series is described as follows: Inhibition of YAP1 (unknown origin) assessed as disruption in YAP1/OCT4 interaction at 5 uM by ELISA relative to control.
Series [2] shares this target. As to the kind of experiment: Inhibition of YAP1 (unknown origin) assessed as disruption in YAP1/OCT4 interaction at 50 uM by cell based assay.
Series [3] has the same target. As to the kind of experiment: Inhibition of YAP1 in human NCI-H1650 cells assessed as disruption in YAP1/OCT4 interaction at 20 to 50 uM incubated for 48 hrs by proximity ligation assay. Type of series: cell-based.
The test system of series [4] is NCI-H1650. The series is described as follows: Inhibition of YAP1 in human NCI-H1650 cells assessed as disruption in YAP1/TEAD2 interaction at 20 to 50 uM incubated for 48 hrs by proximity ligation assay. Type of series: cell-based.
Series [5] in a line: Cytotoxicity in human cancer associated fibroblasts at 20 to 50 uM incubated for 24 to 48 hrs by cytotracker-red/green dye staining based immunofluorescence microscopy.
The test system of series [6] is NCI-H1650. The series is described as follows: Cytotoxicity in human NCI-H1650 cells assessed as induction of cell killing in presence of cancer associated fibroblasts at 20 to 50 uM incubated for 24 to 48 hrs by cytotracker-red/green dye staining based immunofluorescence microscopy. The format is functional.
Series [7] deals with NCI-H1650. The series is described as follows: Inhibition of self-renewal capacity in stem-like side-population cells of human NCI-H1650 cells assessed as reduction in number of spheres at 50 uM incubated for 10 days by sphere formation assay. Type of series: functional, cell-based.
The subject of series [8] is NCI-H1650. As to the kind of experiment: Inhibition of self-renewal capacity in stem-like side-population cells of human NCI-H1650 cells assessed as reduction in number of spheres at 1 to 20 uM incubated for 10 days by sphere formation assay. Type of series: functional, cell-based.
In series [9] the target is Transcriptional coactivator YAP1 (Homo sapiens) (UniProt P46937). The series is described as follows: Inhibition of YAP1 in human A549 cells assessed as disruption in YAP1/OCT4 co-localization at 25 uM incubated for 48 hrs by double immunofluorescence based assay. Type of series: cell-based.
For series [10] the target is unchanged. As to the kind of experiment: Inhibition of YAP1 (unknown origin) assessed as disruption in YAP1/OCT4 interaction at 10 uM by ELISA relative to control.
The test system of series [11] is NCI-H1650. As to the kind of experiment: Inhibition of self-renewal capacity in stem-like side-population cells of human NCI-H1650 cells assessed as reduction in number of spheres at 5 to 50 uM incubated for 10 days by sphere formation assay. Type of series: functional, cell-based.
The subject of series [12] is NCI-H146. The series is described as follows: Inhibition of self-renewal capacity in methotrexate insensitive stem-like side-population cells of human NCI-H146 cells assessed as reduction in number of spheres at 2 uM incubated for 3 days after 7 days methotrexate exposure by sphere formation assay. The format is functional.

Activity calls are given as the source filed them. No cut-off for these calls is given here.

Sequence of Transcriptional coactivator YAP1 (Homo sapiens) (P46937 whole entry): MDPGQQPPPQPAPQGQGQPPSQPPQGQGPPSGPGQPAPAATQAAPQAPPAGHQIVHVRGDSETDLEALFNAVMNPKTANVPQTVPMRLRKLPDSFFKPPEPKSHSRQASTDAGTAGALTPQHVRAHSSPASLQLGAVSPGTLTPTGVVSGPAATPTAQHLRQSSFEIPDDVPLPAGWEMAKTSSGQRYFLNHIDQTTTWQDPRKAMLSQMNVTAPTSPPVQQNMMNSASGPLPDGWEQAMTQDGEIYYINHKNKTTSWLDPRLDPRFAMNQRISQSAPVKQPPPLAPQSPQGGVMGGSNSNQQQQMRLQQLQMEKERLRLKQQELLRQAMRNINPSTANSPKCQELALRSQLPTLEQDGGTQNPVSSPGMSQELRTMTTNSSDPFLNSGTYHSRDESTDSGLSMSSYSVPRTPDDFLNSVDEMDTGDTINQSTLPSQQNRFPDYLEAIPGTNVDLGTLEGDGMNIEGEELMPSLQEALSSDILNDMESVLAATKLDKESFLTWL

Regarding `CC(C)(C)OC(=O)N1CCC(CC(=O)N[C@@H](Cc2ccc(OCc3ccccc3)cc2)C(=O)O)CC1`, the figures for the inhibition in series [1] and in series [2] were 75% and 74%, respectively.

`CCOc1ccc(CCC(=O)N2CCC(CC(=O)N[C@@H](Cc3ccc(OCc4ccccc4)cc3)C(=O)O)CC2)cc1`: the inhibition entry in series [3] and in series [4] was “Active” each time.

`CC1Oc2cc3c(-c4c(O)cc(O)c5c(O)c6c(cc45)OC(C)C(C)C6=O)c(O)cc(O)c3c(O)c2C(=O)C1C` (stereo unspecified): the Activity entry in series [5] is given as “Non-Toxic”. Also, in series [6], the outcome was Active. The inhibition entry in series [7] was “Active”.

As to `COC(=O)[C@H](Cc1ccc(OCc2ccccc2)cc1)NC(=O)CC1CCN(C(=O)CC(c2ccccc2)c2ccccc2)CC1`, in [8], the inhibition result is “Active”.

As to `COCCn1c2nc(=O)n(-c3ccccc3)c(=O)c-2nc2ccccc21`, the inhibition result in series [3], in [8], in series [4], in series [9] and in series [7] was “Active” in each case. In addition, the Activity result in series [5] is “Non-Toxic”. In addition, the result in series [6] was Active.

Take `CC(C)NC(=O)[C@H](Cc1ccc(OCc2ccccc2)cc1)NC(=O)CC1CCN(C(=O)OC(C)(C)C)CC1`: the results for the inhibition in [1] and in series [2] were 95% and 83%, respectively.

Take `CC(C)(C)OC(=O)N1CCC(CC(=O)N[C@@H](Cc2ccc(OCc3ccccc3)cc2)C(=O)NC2CCCCC2)CC1`: the inhibition in series [1] came out at 75%; in [2], 71%.

On to `O=C(CC1CCN(C(=O)CCc2ccccc2)CC1)N[C@@H](Cc1ccc(OCc2ccccc2)cc1)C(=O)NC1CCC1`, for which the inhibition in series [10] turned out to be 80%; in series [2] it was 65%.

Consider `COC(=O)[C@H](Cc1ccc(OCc2ccccc2)cc1)NC(=O)CC1CCN(C(=O)c2ccccc2)CC1`, for which the values for the inhibition in [10] and in [2] were 75% and 84%, respectively. In series [11], the inhibition result was “Active”.

For `O=[N+]([O-])c1[nH]cnc1/C=C/c1ccccc1`, the Activity entry in [5] is on record as “Non-Toxic”. The inhibition entry in [11], in [9] and in series [7] was “Active” in each case. Further, in series [6], the result was Active.

Take `COc1cc2c(cc1OC)[N+]([O-])=C(c1ccccc1)C2=O`: the Activity result in series [5] is “Non-Toxic”. Besides, the outcome in [6] was Active. The inhibition entry in series [9] was “Active”.

For `Oc1ccccc1/N=C/c1c(O)ccc2ccccc12`, the inhibition result in series [3], in series [11], in series [4], in [9] and in series [7] was “Active” each time. Besides, the Activity entry in [5] is listed as “Non-Toxic”. The result in series [6] was Active.

As to `O=C1NC2C(O)C(O)C(O)C(O)C2c2cc3c(c(O)c21)OCO3` (stereo unspecified), the inhibition entry in series [7] was “Active”.

In the case of `CCOC(=O)/C(C#N)=C/c1c[nH]c2ccccc12`, the inhibition result in series [7] is “Active”.

In the case of `COC(=O)[C@H](Cc1ccc(OCc2ccccc2)cc1)NC(=O)CC1CCN(Cc2ccccc2)CC1`, the inhibition worked out at 57% in series [10] and 70% in series [2].

Regarding `COC(=O)[C@H](Cc1ccc(O)cc1)NC(=O)CC1CCN(C(=O)CCc2ccccc2)CC1`, the inhibition is 97% in [1] and > 77% in series [2].

As for `O=C(CC1CCN(C(=O)CCc2ccccc2)CC1)N[C@@H](Cc1ccc(OCc2ccccc2)cc1)C(=O)NCC1CC1`, the results for the inhibition in series [1] and in series [2] were 95% and > 84%, respectively.

Regarding `O=C(CC1CCN(C(=O)CCc2cccc(F)c2)CC1)N[C@@H](Cc1ccc(OCc2ccccc2)cc1)C(=O)O`, in series [11], the inhibition result is “Active”.

With `O=C(CC1CCN(C(=O)CCc2ccccc2)CC1)N[C@@H](Cc1ccc(OCc2ccccc2)cc1)C(=O)NC1CCCC1`, the inhibition in series [1] is 90%; in series [2] it was > 70%.

With `COC(=O)[C@H](Cc1ccc(OCc2ccccc2)cc1)NC(=O)CC1CCN(C(=O)CCc2ccccc2C)CC1`, in series [8], the inhibition result was “Active”.

For `NC(=O)[C@H](Cc1ccc(OCc2ccccc2)cc1)NC(=O)CC1CCN(C(=O)CCc2ccccc2)CC1`, in series [12], the inhibition result is “Active”.

On to `COC(=O)[C@H](Cc1ccc(O)cc1)NC(=O)CC1CCN(C(=O)OC(C)(C)C)CC1`, for which the inhibition in series [1] amounted to 78%; in series [2], 70%.

Take `COC(=O)[C@H](Cc1ccc(OCc2ccccc2)cc1)NC(=O)CC1CCN(C(=O)CCc2cccc(C)c2)CC1`: the inhibition result in series [8] was “Active”.

As for `O=C(CC1CCN(C(=O)CCc2ccccc2)CC1)N[C@@H](Cc1ccc(OCc2ccccc2)cc1)C(=O)NC1CC1`, the inhibition in series [10] was 90%; in series [1], 90%; in [2] it was > 73%.

As for `O=C(CC1CCN(C(=O)CCc2ccccc2)CC1)N[C@@H](Cc1ccc(OCc2ccccc2)cc1)C(=O)NC1CCCCC1`, the figures for the inhibition in [1] and in series [2] were 90% and 70%, respectively.

Turning to `CCOc1ccc(CCC(=O)N2CCC(CC(=O)N[C@@H](Cc3ccc(OCc4ccccc4)cc3)C(=O)OC)CC2)cc1`, the inhibition entry in series [8] is “Active”.

The values are drawn from ChEMBL document CHEMBL4419178, “Yap1 inhibitors that target the interaction of yap1 with oct4” (2018).
